Assay results reported in ChEMBL document CHEMBL3526109 (Drug Metab Dispos, 2011).

Experiments:
Details in all cases: in vivo
[1] = Drug level in bile duct-cannulated rat bile treated with [14C]brivanib alaninate at 100 mg/kg, po administered as single dose via gavage by mass spectrometry; format: ADME, organism-based
[2] = Drug excretion in cynomolgus monkey feces treated with [14C]brivanib alaninate at 10 mg/kg, po administered as single dose via gavage by HPLC analysis; format: ADME, organism-based, Macaca fascicularis
Plasma [3] = test: Drug level in human plasma assessed as compound formation treated with [14C]brivanib alaninate at 800 mg, po administered as single dose via gavage measured after 2 hrs by mass spectrometry; format: ADME, organism-based
Plasma [4] = test: Drug level in human plasma assessed as compound formation treated with [14C]brivanib alaninate at 800 mg, po administered as single dose via gavage measured after 12 hrs by mass spectrometry; format: ADME, organism-based
[5] = Drug excretion in Sprague-Dawley rat feces treated with [14C]brivanib alaninate at 100 mg/kg, po administered as single dose via gavage by HPLC analysis; format: ADME, organism-based
Plasma [6] = test: Drug level in human plasma assessed as compound formation treated with [14C]brivanib alaninate at 800 mg, po administered as single dose via gavage measured after 1 hr by mass spectrometry; format: ADME, organism-based
[7] = Drug excretion in cynomolgus monkey urine treated with [14C]brivanib alaninate at 10 mg/kg, po administered as single dose via gavage by HPLC analysis; format: ADME, organism-based, Macaca fascicularis
[8] = Drug level in bile duct-cannulated cynomolgus monkey bile treated with [14C]brivanib alaninate at 10 mg/kg, po administered as single dose via gavage by mass spectrometry; format: ADME, organism-based, Macaca fascicularis
[9] = Drug excretion in Sprague-Dawley rat urine treated with [14C]brivanib alaninate at 100 mg/kg, po administered as single dose via gavage by HPLC analysis; format: ADME, organism-based
Plasma [10] = test: Drug level in cynomolgus monkey plasma assessed as compound formation treated with [14C]brivanib alaninate at 10 mg/kg, po administered as single dose via gavage measured after 6 hrs by mass spectrometry; format: ADME, organism-based, Macaca fascicularis
Plasma [11] = test: Drug level in human plasma assessed as compound formation treated with [14C]brivanib alaninate at 800 mg, po administered as single dose via gavage measured after 8 hrs by mass spectrometry; format: ADME, organism-based
Plasma [12] = test: Drug level in Sprague-Dawley rat plasma assessed as compound formation treated with [14C]brivanib alaninate at 100 mg/kg, po administered as single dose via gavage measured after 1 hr by mass spectrometry; format: ADME, organism-based
[13] = Drug excretion in human feces treated with [14C]brivanib alaninate at 800 mg, po administered as single dose […] by HPLC analysis; format: ADME, organism-based
Plasma [14] = test: Drug level in cynomolgus monkey plasma assessed as compound formation treated with [14C]brivanib alaninate at 10 mg/kg, po administered as single dose via gavage measured after 4 hrs by mass spectrometry; format: ADME, organism-based, Macaca fascicularis
Plasma [15] = test: Drug level in cynomolgus monkey plasma assessed as compound formation treated with [14C]brivanib alaninate at 10 mg/kg, po administered as single dose via gavage measured after 12 hrs by mass spectrometry; format: ADME, organism-based, Macaca fascicularis
Plasma [16] = test: Drug level in Sprague-Dawley rat plasma assessed as compound formation treated with [14C]brivanib alaninate at 100 mg/kg, po administered as single dose via gavage measured after 2 hrs by mass spectrometry; format: ADME, organism-based
Plasma [17] = test: Drug level in Sprague-Dawley rat plasma assessed as compound formation treated with [14C]brivanib alaninate at 100 mg/kg, po administered as single dose via gavage measured after 6 hrs by mass spectrometry; format: ADME, organism-based
[18] = Drug excretion in human urine treated with [14C]brivanib alaninate at 800 mg, po administered as single dose […] by HPLC analysis; format: ADME, organism-based
Plasma [19] = test: Drug level in cynomolgus monkey plasma assessed as compound formation treated with [14C]brivanib alaninate at 10 mg/kg, po administered as single dose via gavage measured after 2 hrs by mass spectrometry; format: ADME, organism-based, Macaca fascicularis
Plasma [20] = test: Drug level in cynomolgus monkey plasma assessed as compound formation treated with [14C]brivanib alaninate at 10 mg/kg, po administered as single dose via gavage measured after 1 hr by mass spectrometry; format: ADME, organism-based, Macaca fascicularis
Plasma [21] = test: Drug level in human plasma assessed as compound formation treated with [14C]brivanib alaninate at 800 mg, po administered as single dose via gavage measured after 4 hrs by mass spectrometry; format: ADME, organism-based
[22] = Drug recovery in cynomolgus monkey urine at 10 mg/kg, po administered as single dose via gavage measured during 0 to 168 hrs by liquid scintillation counting; format: ADME, organism-based, Macaca fascicularis
[23] = Drug recovery in bile duct-cannulated cynomolgus monkey feces at 10 mg/kg, po administered as single dose via gavage measured during 0 to 72 hrs by liquid scintillation counting; format: ADME, organism-based, Macaca fascicularis
Rattus norvegicus [24] = test: Tmax of total radioactivity in Sprague-Dawley rat plasma treated at 100 mg/kg, po administered as single dose via gavage by liquid scintillation counting; format: ADME, organism-based
[25] = Drug recovery in bile duct-cannulated rat bile at 100 mg/kg, po administered as single dose via gavage measured during 0 to 48 hrs by liquid scintillation counting; format: ADME, organism-based
Homo sapiens [26] = test: AUC (0 to 12 hrs) as total radioactivity in human plasma at 800 mg, po administered as single oral dose by HPLC analysis; format: ADME, organism-based
Cynomolgus monkey [27] = test: Total drug recovery in bile duct-cannulated cynomolgus monkey at 10 mg/kg, po administered as single dose via gavage measured during 0 to 72 hrs by liquid scintillation counting; format: ADME, organism-based, Macaca fascicularis
Cynomolgus monkey [28] = test: Tmax of total radioactivity in cynomolgus monkey plasma treated at 10 mg/kg, po administered as single dose via gavage by liquid scintillation counting; format: ADME, organism-based, Macaca fascicularis
[29] = Drug recovery in bile duct-cannulated cynomolgus monkey bile at 10 mg/kg, po administered as single dose via gavage measured during 0 to 72 hrs by liquid scintillation counting; format: ADME, organism-based, Macaca fascicularis
[30] = Drug recovery in bile duct-cannulated rat urine at 100 mg/kg, po administered as single dose via gavage measured during 0 to 48 hrs by liquid scintillation counting; format: ADME, organism-based
Rattus norvegicus [31] = test: AUC (0 to 6 hrs) as total radioactivity in Sprague-Dawley rat plasma at 100 mg/kg, po administered as single oral dose by HPLC analysis; format: ADME, organism-based
[32] = Drug recovery in human urine at 800 mg, po administered as single dose via gavage measured during 0 to 288 hrs by liquid scintillation counting; format: ADME, organism-based
[33] = Drug recovery in human feces at 800 mg, po administered as single dose via gavage measured during 0 to 288 hrs by liquid scintillation counting; format: ADME, organism-based
Homo sapiens [34] = test: Cmax as total radioactivity in human plasma treated at 800 mg, po administered as single dose […] by mass spectrometry; format: ADME, organism-based
[35] = Drug recovery in Sprague-Dawley rat feces at 100 mg/kg, po administered as single dose via gavage measured during 0 to 168 hrs by liquid scintillation counting; format: ADME, organism-based
Homo sapiens [36] = test: Total drug recovery in human at 800 mg, po administered as single dose […] measured during 0 to 288 hrs by liquid scintillation counting; format: ADME, organism-based
Homo sapiens [37] = test: Tmax of total radioactivity in human plasma treated at 800 mg, po administered as single dose […] by mass spectrometry; format: ADME, organism-based
[38] = Drug recovery in bile duct-cannulated cynomolgus monkey urine at 10 mg/kg, po administered as single dose via gavage measured during 0 to 72 hrs by liquid scintillation counting; format: ADME, organism-based, Macaca fascicularis
Cynomolgus monkey [39] = test: AUC (0 to t) as total radioactivity in cynomolgus monkey plasma treated at 10 mg/kg, po administered as single dose via gavage by liquid scintillation counting; format: ADME, organism-based, Macaca fascicularis
Rattus norvegicus [40] = test: Total drug recovery in Sprague-Dawley rat at 100 mg/kg, po administered as single dose via gavage measured during 0 to 168 hrs by liquid scintillation counting; format: ADME, organism-based
Rattus norvegicus [41] = test: Total drug recovery in bile duct-cannulated rat at 100 mg/kg, po administered as single dose via gavage measured during 0 to 48 hrs by liquid scintillation counting; format: ADME, organism-based
[42] = Drug recovery in cynomolgus monkey feces at 10 mg/kg, po administered as single dose via gavage measured during 0 to 168 hrs by liquid scintillation counting; format: ADME, organism-based, Macaca fascicularis
Rattus norvegicus [43] = test: Cmax as total radioactivity in Sprague-Dawley rat plasma treated at 100 mg/kg, po administered as single dose via gavage by liquid scintillation counting; format: ADME, organism-based
Cynomolgus monkey [44] = test: Total drug recovery in cynomolgus monkey at 10 mg/kg, po administered as single dose via gavage measured during 0 to 168 hrs by liquid scintillation counting; format: ADME, organism-based, Macaca fascicularis
[45] = Drug recovery in bile duct-cannulated rat feces at 100 mg/kg, po administered as single dose via gavage measured during 0 to 48 hrs by liquid scintillation counting; format: ADME, organism-based
Homo sapiens [46] = test: AUC (0 to t) as total radioactivity in human plasma treated at 800 mg, po administered as single dose […] by mass spectrometry; format: ADME, organism-based
Cynomolgus monkey [47] = test: Cmax as total radioactivity in cynomolgus monkey plasma treated at 10 mg/kg, po administered as single dose via gavage by liquid scintillation counting; format: ADME, organism-based, Macaca fascicularis
[48] = Drug recovery in Sprague-Dawley rat urine at 100 mg/kg, po administered as single dose via gavage measured during 0 to 168 hrs by liquid scintillation counting; format: ADME, organism-based
Cynomolgus monkey [49] = test: AUC (0 to 12 hrs) as total radioactivity in cynomolgus monkey plasma at 10 mg/kg, po administered as single oral dose by HPLC analysis; format: ADME, organism-based, Macaca fascicularis
Rattus norvegicus [50] = test: AUC (0 to t) as total radioactivity in Sprague-Dawley rat plasma treated at 100 mg/kg, po administered as single dose via gavage by liquid scintillation counting; format: ADME, organism-based

CC(=O)COc1cn2ncnc(Oc3ccc4[nH]c(C)cc4c3F)c2c1C
Compound recovery [1]: metabolite_detected | Compound recovery [2]: metabolite_not_detected | Compound recovery (Plasma [3]): metabolite_detected | Compound recovery (Plasma [4]): metabolite_detected | Compound recovery [5]: metabolite_not_detected | Compound recovery (Plasma [6]): metabolite_detected | Compound recovery [7]: metabolite_not_detected | Compound recovery [8]: metabolite_detected | Compound recovery [9]: metabolite_not_detected | Compound recovery (Plasma [10]): metabolite_detected | Compound recovery (Plasma [11]): metabolite_detected | Compound recovery (Plasma [12]): metabolite_detected | Compound recovery [13]: metabolite_not_detected | Compound recovery (Plasma [14]): metabolite_detected | Compound recovery (Plasma [15]): metabolite_detected | Compound recovery (Plasma [16]): metabolite_detected | Compound recovery (Plasma [17]): metabolite_detected | Compound recovery [18]: metabolite_not_detected | Compound recovery (Plasma [19]): metabolite_detected | Compound recovery (Plasma [20]): metabolite_detected | Compound recovery (Plasma [21]): metabolite_detected

Cc1cc2c(F)c(Oc3n[14cH]nn4cc(OC[C@@H](C)OC(=O)[C@H](C)N)c(C)c34)ccc2[nH]1
Radiolabel recovery [22]: 10.3% | Radiolabel recovery [23]: 26.41% | Tmax (Rattus norvegicus [24]): 2 h | Radiolabel recovery [25]: 78.35% | AUC (Homo sapiens [26]): 65627.4 ugequiv/l.hr | Radiolabel recovery (Cynomolgus monkey [27]): 81.43% | Tmax (Cynomolgus monkey [28]): 2 h | Radiolabel recovery [29]: 47.66% | Radiolabel recovery [30]: 7.33% | AUC (Rattus norvegicus [31]): 139766 ugequiv/l.hr | Radiolabel recovery [32]: 12.18% | Radiolabel recovery [33]: 81.54% | Cmax (Homo sapiens [34]): 9.4 µg/mL | Radiolabel recovery [35]: 83.58% | Radiolabel recovery (Homo sapiens [36]): 93.72% | Tmax (Homo sapiens [37]): 1 h | Radiolabel recovery [38]: 3.56% | AUCt (Cynomolgus monkey [39]): 90.3 µg·h/mL | Radiolabel recovery (Rattus norvegicus [40]): 93.68% | Radiolabel recovery (Rattus norvegicus [41]): 88.99% | Radiolabel recovery [42]: 76.31% | Cmax (Rattus norvegicus [43]): 35.2 µg/mL | Radiolabel recovery (Cynomolgus monkey [44]): 89.79% | Radiolabel recovery [45]: 3.31% | AUCt (Homo sapiens [46]): 203.8 µg·h/mL | Cmax (Cynomolgus monkey [47]): 9.7 µg/mL | Radiolabel recovery [48]: 9.46% | AUC (Cynomolgus monkey [49]): 69315 ugequiv/l.hr | AUCt (Rattus norvegicus [50]): 250 µg·h/mL
